In patent US6110897A, “Antiinflammatory cell adhesion inhibitors” (Glycorex AB, priority 1997, dated 2000):
Read-outs that look alike come from different tables or passages of the source.

What was measured:
[1] = system: E-selectin-IgG fusion protein; test: Inhibition of HL60 cell adhesion to recombinant E-selectin-IgG fusion protein; type: cell-based, human
Procedure: (§1) These recombinant proteins contain the signal sequence, the lectin-like domain, the EGF (epidermal growth factor) repeat domain and six (E-selectin) and two (P-selectin) of the CR-like (complement regulatory) domains. […] Adhesion of labelled HL60 tumor cells was quantitatively measured in a cytofluoro-meter. The specific cell binding in the presence of inhibitors (I) was calculated compared with nonspecific binding to the CD4-IgG fusion protein. […] Genetic constructs for expression of extracellular portions of the human selectins E and P, joined to human immunoglobulin heavy chain hinge, CH2 and CH3 regions were obtained from B. Seed, Massachusetts General Hospital, Boston, U.S.A. […] CD4-IgG served as a negative control. Recombinant proteins were expressed as soluble proteins after DEAE/dextran facilitated plasmid DNA trans-fection into COS cells according to standard procedures. […] After washing with PBS, plates were blocked for 0.5 h with 150 μl/well of 1% BSA in PBS. […] After one PBS wash, 40 μl/well binding buffer (50 mM Hepes, pH 7.5, 100 mM NaCl, 100 μM MgCl2. 100 μM MnCl2, 100 μM CaCl2, 1 mg/ml BSA) were added together with test compounds or antibodies (see below). Parallel to the preparation of the plates, HL60 cells, grown in DMEM medium with 20% FCS, were washed two times with PBS before incubation for 20 min in Fc-receptor blocking buffer at RT. […] The amount of bound cells was quantitated in a cytofluorometer (CytoFluor 2300, Millipore, Bedford, U.S.A.). Specific cell binding was calculated by subtraction of the signals in wells coated with CD4-IgG (nonspecific binding) from the signals in wells coated with selectin-IgG. […] IC50 values were determined according to the four parameter logistics model. Each IC50 determination was repeated on another day at least once.

[2] = target: T1, P-selectin-IgG fusion protein (Homo sapiens, UniProt P16109); test: Inhibition of HL60 cell adhesion to recombinant P-selectin-IgG fusion protein; type: cell-based; conditions: for IC50: concentration to block adhesion of 50% of HL60 cells compared with negative control
T1 construct: the lectin-like domain, the EGF repeat domain and six (E-selectin) and two (P-selectin) of the complement regulatory-like domains; made in house; host or cells: COS cells (DEAE/dextran plasmid transfection; culture supernatant; genetic constructs from B. Seed, Massachusetts General Hospital)
T1 sequence (P16109 with tags, fused parts or gaps limits assumed): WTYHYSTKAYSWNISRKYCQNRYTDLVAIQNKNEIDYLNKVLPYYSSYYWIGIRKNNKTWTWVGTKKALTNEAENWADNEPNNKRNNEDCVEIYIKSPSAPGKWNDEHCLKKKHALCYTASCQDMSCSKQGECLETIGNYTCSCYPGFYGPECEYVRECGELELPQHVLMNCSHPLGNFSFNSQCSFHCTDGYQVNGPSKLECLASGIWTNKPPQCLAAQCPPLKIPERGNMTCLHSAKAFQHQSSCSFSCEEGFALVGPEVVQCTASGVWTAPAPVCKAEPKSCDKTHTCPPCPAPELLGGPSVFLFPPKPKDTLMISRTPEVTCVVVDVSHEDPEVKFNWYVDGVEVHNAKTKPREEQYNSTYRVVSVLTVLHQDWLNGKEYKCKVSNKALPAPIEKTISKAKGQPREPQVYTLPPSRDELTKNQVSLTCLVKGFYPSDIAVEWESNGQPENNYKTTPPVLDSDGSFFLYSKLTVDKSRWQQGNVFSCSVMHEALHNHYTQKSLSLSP
Procedure: as §1

E- and P-selectins = test: Selectin cell adhesion assays, E- and P-selectin taken together (statements in words); type: cell-based, human; conditions: removal of the acetamido or acetyl group, compared with II-1
Excerpt: Primary assays for investigation of the action of compounds (I) on cell adhesion to recombinant soluble selectin fusion proteins:
The preparation of soluble E- and P-selectin-IgG fusion proteins, composed of the extracellular portions of human selectins E and P and the human immunoglobulin (IgG) heavy chain hinge, CH2 and CH3 regions, has been described in Cell 1991, 67, 35. These recombinant proteins contain the signal sequence, the lectin-like domain, the EGF (epidermal growth factor) repeat domain and six (E-selectin) and two (P-selectin) of the CR-like (complement regulatory) domains. […] Adhesion of labelled HL60 tumor cells was quantitatively measured in a cytofluoro-meter. The specific cell binding in the presence of inhibitors (I) was calculated compared with nonspecific binding to the CD4-IgG fusion protein.
The activity of compounds (I), (II) and (III) was measured in adhesion assays as the inhibition of the binding of promyelocytic leukemia HL60 cells (ATCC CRL 1964) to recombinant solid phase bound selectin-fusion proteins. […] Recombinant proteins were expressed as soluble proteins after DEAE/dextran facilitated plasmid DNA trans-fection into COS cells according to standard procedures. […] The amount of bound cells was quantitated in a cytofluorometer (CytoFluor 2300, Millipore, Bedford, U.S.A.). […]

E-selectin-Ig = conditions: cited from earlier work
[3] = concentration to block adhesion of 50% of HL60 cells compared with negative control; read-out: E-selectin IC50

Row | IC50 [2] | IC50 [1, 3] | SMILES | improvement of the E-selectin IC50 over II-1 ([1]; I-1 over reference compound II-1) | IC50 ([1]; read-out: E-selectin IC50; concentration to block adhesion of 50% of HL60 cells compared with negative control) | enhancement of binding affinity to P-selectin (factor) ([2]; fully deacetylated I-1 compared with II-1) | inhibitory potency relative to II-1 (E- and P-selectins) | enhanced inhibitory potency compared to sLe^X (fold) (E-selectin-Ig; cell-free ELISA, E-selectin-Ig competitive binding) | IC50 (E-selectin-Ig; cell-free system, read-out: IC50, E-selectin-Ig competitive binding)
1 | 2000 µM | 1000 µM | CC(=O)NC1C(O)CC(OC2C(O)C(CO)OC(OC3C(CO)OC(OCCCCCCN)C(NC(C)=O)C3OC3OC(C)C(O)C(O)C3O)C2O)(C(=O)O)OC1C(O)C(O)CO (centres unmarked) [II-1] | – | – | – | – | – | –
2 | 700 µM | 700 µM | CC(=O)NC1C(OCCCCCCN)OC(CO)C(OC2OC(CO)C(O)C(OC3(C(=O)O)CC(O)CC(C(O)C(O)CO)O3)C2O)C1OC1OC(C)C(O)C(O)C1O (centres unmarked) [III-1] | – | – | – | only slightly improved | – | –
3 | 1000 µM | 900 µM | CC(=O)NC1C(OCCCCCCN)OC(CO)C(OC2OC(CO)C(O)C(OC3(C(=O)O)CC(O)C(N)C(C(O)C(O)CO)O3)C2O)C1OC1OC(C)C(O)C(O)C1O (centres unmarked) [III-2] | – | – | – | only slightly improved | – | –
4 | – | – | CC(=O)NC1C(O)CC(OC2C(O)C(CO)OC(OC3C(CO)OC(O)C(N)C3OC3OC(C)C(O)C(O)C3O)C2O)(C(=O)O)OC1C(O)C(O)CO (centres unmarked) [sLe^X (GlcNH2)] | – | – | – | – | 5 fold | 77 µM

Row | SMILES | IC50 [2] | IC50 [1, 3] | improvement of the E-selectin IC50 over II-1 ([1]; I-1 over reference compound II-1) | IC50 ([1]; read-out: E-selectin IC50; concentration to block adhesion of 50% of HL60 cells compared with negative control) | enhancement of binding affinity to P-selectin (factor) ([2]; fully deacetylated I-1 compared with II-1) | inhibitory potency relative to II-1 (E- and P-selectins) | enhanced inhibitory potency compared to sLe^X (fold) (E-selectin-Ig; cell-free ELISA, E-selectin-Ig competitive binding) | IC50 (E-selectin-Ig; cell-free system, read-out: IC50, E-selectin-Ig competitive binding)
5 | CC1OC(OC2C(N)C(OCCCCCCN)OC(CO)C2OC2OC(CO)C(O)C(OC3(C(=O)O)CC(O)C(N)C(C(O)C(O)CO)O3)C2O)C(O)C(O)C1O [Compound I-1, 2-Amino-4-O-[3-O-[5-amino-3,5-dideoxy-D-glycero-α-D-galactononulopyranosyl]-β-D-galactopyranosyl]-1-[6-aminohexyl]-2-deoxy-3-O-[α-L-fucopyranosyl]-β-D-glycopyranose] | 160 µM | – | significant improvement | 270 µM | 12.5 | – | – | –
